Key:
PC3 = experiment: Toxicity test on cells, PC3; format: cell-based; settings: Homo sapiens, PC-3; 48 hours of treatment, Hoechst nuclei staining
Description: (§1) The compounds according to the invention were also tested on the cell lines HuH7, CaCo-2, HCT116, PC3, NCl, HacaT and Fibroblasts.
(§2) Operating Procedure: The cells were cultivated according to the ECACC recommendations. The toxicity test of the compounds on these cells was conducted as follows: 4×10^3 cells/well were sown in 96 wells. 24 hours after sowing the cells, the cells were exposed to increased concentrations of the compounds (0.1 μM-0.3 μM-0.9 μM-2.7 μM-8.3 μM-25 μM). After 48 hours of treatment, the cells were washed in PBS and bound in a cold ethanol/acetic acid (90/5) mixture for 20 minutes. Next, the nuclei were coloured with […] (Sigma). The acquisition of images and the analysis was carried out by means of a reader Cellomics ArrayScan VTI/HCS (Thermo Scientific).

HacaT = experiment: Toxicity test on cells, HacaT; format: cell-based; settings: Homo sapiens, 48 hours of treatment, Hoechst nuclei staining
Description: as §1, §2

HCT116 = experiment: Toxicity test on cells, HCT116; format: cell-based; settings: Homo sapiens, HCT-116; 48 hours of treatment, Hoechst nuclei staining
Description: as §1, §2

NCl = experiment: Toxicity test on cells, NCl; format: cell-based; settings: 48 hours of treatment, Hoechst nuclei staining
Description: as §1, §2

MDA = experiment: Toxicity test on cells, MDA; format: cell-based; settings: 48 hours of treatment, Hoechst nuclei staining
Description: [The procedure below names another cell line; the source lists this cell line under the same test.] as §1, §2

HUH7 = experiment: Toxicity test on cells, HUH7; format: cell-based; settings: Homo sapiens, Huh-7; 48 hours of treatment, Hoechst nuclei staining
Description: as §1, §2

Fibroblasts = experiment: Toxicity test on cells, Fibroblasts; format: cell-based; settings: Fibroblast; 48 hours of treatment, Hoechst nuclei staining
Description: as §1, §2

PI3Kα = PI3Kα (Homo sapiens, UniProt P42336); experiment: PI3Kα kinase activity, Adapta TR-FRET ADP detection; format: biochemical; settings: purified p110α/p85α heterodimer, triplicate; read-out: Kinases IC50 PI3Kα
Description: (§3) The activity of the PI3Kα kinase was evaluated by using a purified heterodimer (reference: PV4788 from Invitrogen) consisting of the α catalytic p110 subunit (PIK3CA) and the α regulation p85 subunit (PIK3R1). The assay of the kinase with the kit Adapta™ (reference: PV5099 from Invitrogen) is an enzymatic test based on the detection of ADP, produced during the reaction, by the fluorescence technique TR-FRET. It took place in a 384-well plate and was able to be divided into two phases: an enzymatic reaction phase, and a phase for detecting the ADP level.
(§4) During the enzymatic reaction phase, the following components were mixed in 10 μL of a same well: 2.5 μL of each dilution in series of inhibitors taken up in DMSO and then diluted to 1/25 in the reaction buffer (250 mM HEPES pH 7.5, 500 mM NaCl, 0.15 CHAPS, 5 mM EGTA, 15 mM MgCl2 and 1 mM DTT, ref.: PV5101 from Invitrogen), 2.5 μL of a solution containing PI3K at the optimum concentration (concentration defined according to the optimization step described in the operating procedure of the kit) diluted in the same reaction buffer, and finally, 5 μL of a solution containing 20 μM ATP and 100 μM PIP2 diluted in the reaction buffer. For each inhibitor concentration, the reaction was conducted in three copies (triplicate). The reaction was then incubated for 60 min at room temperature without any stirring in darkness.
(§5) During the phase for detecting ADP, 5 μL of a detection solution containing an anti-ADP antibody labeled with europium (6 nM), a tracer of the Alexa Fluor® 647 type coupled with ADP (30 nM), and EDTA (30 mM, for stopping the kinase reaction) were diluted in the dilution buffer (reference: PV3574 from Invitrogen). After 30 min of incubation at room temperature with stirring (40 rpm) in darkness, the 384-well plates were read in a plate reader Victor V configured for HTRF (Perkin Elmer). The excitation was produced at 340 nm and emission was measured at 665 nm and 615 nm. The inhibition curve was then plotted according to the emission ratio at 665 nm/615 nm versus the inhibitor concentration.
(§6) In order to obtain a linear response of the signal, a titration curve ATP-ADP, corresponding to the conversion % of ATP into ADP, was achieved by varying both of these species while keeping [ADP]+[ATP]=10 μM. The emission ratio at 665 nm/615 nm resulting from this (Y) was plotted versus the conversion % of ATP into ADP (X). The data of this curve were formatted according to a model with three hyperbolic parameters from the following equation: Y=C+A*(1−(X/(B+X))).
(§7) The software package GraphPad™ Prism® thus allows calculation of the parameters A, B and C. A conversion % corresponds to an emission ratio 665 nm/615 nm, this percentage is calculated by using the following equation: Conversion %=B*(C+A−Ratio)/(Ratio−C)
(§8) The three parameters A, B and C having been defined by the preceding equation, the conversion % was therefore able to be plotted versus the inhibitor concentration. The amount of inhibitor required for causing a 50% variation in the % conversion of ATP into ADP corresponds to the IC50 value of the inhibitor.

CaCo2 = experiment: Toxicity test on cells, CaCo2; format: cell-based; settings: Homo sapiens, Caco-2; 48 hours of treatment, Hoechst nuclei staining
Description: as §1, §2

PI3Kδ = PI3Kδ (Homo sapiens, UniProt O00329); experiment: PI3Kδ kinase activity, Adapta TR-FRET ADP detection; format: biochemical; settings: purified p110δ/p85α heterodimer; read-out: Kinases IC50 PI3Kδ
Sequence of PI3Kδ (O00329 whole entry): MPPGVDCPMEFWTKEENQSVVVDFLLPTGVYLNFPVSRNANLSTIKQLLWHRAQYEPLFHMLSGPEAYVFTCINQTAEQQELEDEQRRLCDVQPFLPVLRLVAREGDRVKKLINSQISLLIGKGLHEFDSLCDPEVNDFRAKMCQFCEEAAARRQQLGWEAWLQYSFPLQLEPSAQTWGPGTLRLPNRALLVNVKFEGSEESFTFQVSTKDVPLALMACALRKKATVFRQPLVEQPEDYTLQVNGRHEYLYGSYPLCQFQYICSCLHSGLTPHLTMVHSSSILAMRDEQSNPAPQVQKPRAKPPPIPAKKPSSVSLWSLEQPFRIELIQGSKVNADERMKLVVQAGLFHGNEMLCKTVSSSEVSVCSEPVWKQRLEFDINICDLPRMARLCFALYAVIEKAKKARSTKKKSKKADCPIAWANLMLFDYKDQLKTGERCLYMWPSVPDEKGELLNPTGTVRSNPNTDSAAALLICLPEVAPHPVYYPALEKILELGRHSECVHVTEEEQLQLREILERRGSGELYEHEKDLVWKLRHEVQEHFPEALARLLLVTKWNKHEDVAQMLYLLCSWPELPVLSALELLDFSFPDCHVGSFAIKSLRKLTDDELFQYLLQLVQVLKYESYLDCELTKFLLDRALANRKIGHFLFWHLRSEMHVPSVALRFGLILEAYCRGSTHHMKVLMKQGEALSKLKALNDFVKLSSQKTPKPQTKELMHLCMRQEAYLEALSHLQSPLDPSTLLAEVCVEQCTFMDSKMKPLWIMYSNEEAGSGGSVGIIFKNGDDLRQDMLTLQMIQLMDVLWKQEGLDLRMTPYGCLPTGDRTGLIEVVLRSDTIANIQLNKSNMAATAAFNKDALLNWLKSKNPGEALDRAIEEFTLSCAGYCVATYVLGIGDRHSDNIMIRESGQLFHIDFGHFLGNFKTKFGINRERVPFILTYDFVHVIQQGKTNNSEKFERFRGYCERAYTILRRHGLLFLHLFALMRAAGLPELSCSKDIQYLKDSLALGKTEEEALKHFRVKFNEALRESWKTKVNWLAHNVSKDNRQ
Sequence of PI3Kδ (P27986 whole entry partner): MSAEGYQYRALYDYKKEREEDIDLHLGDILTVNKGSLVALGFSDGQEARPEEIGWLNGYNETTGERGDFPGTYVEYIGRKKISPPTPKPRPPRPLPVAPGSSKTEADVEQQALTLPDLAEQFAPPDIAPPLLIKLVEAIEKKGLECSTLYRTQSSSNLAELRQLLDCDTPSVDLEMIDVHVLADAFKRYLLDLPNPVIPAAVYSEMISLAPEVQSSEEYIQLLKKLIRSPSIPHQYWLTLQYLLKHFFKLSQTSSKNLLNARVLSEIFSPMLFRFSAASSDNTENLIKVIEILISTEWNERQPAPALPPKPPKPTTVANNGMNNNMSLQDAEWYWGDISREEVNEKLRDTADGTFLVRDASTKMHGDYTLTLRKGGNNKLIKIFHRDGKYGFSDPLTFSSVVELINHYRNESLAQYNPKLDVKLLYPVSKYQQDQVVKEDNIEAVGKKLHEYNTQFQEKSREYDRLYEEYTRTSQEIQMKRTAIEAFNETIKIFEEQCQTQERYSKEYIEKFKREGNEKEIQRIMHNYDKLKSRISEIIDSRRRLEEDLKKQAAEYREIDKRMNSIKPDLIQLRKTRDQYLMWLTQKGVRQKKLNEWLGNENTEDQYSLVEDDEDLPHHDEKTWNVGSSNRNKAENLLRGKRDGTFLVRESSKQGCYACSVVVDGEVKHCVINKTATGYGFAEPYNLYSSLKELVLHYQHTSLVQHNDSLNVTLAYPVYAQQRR
Description: as §3, §4, §5, §6, §7, §8
(§9) The activity of the kinase PI3Kγγ (PV4786 from Invitrogen) was evaluated on the p110γγ catalytic subunit (PI3KCG) and that of the kinase PI3Kδδ on the purified heterodimer (PV5273) respectively consisting of the δδ catalytic p110 subunit (PIK3CD) and the α regulation p85 subunit (PIK3R1) by following the same procedure.

mTOR = mTOR (Homo sapiens, UniProt P42345); experiment: mTOR kinase activity, LANCE Ultra TR-FRET; format: biochemical; settings: truncated mTOR protein, triplicate; read-out: Kinases IC50 mTOR
Sequence of mTOR (P42345 1360-2549): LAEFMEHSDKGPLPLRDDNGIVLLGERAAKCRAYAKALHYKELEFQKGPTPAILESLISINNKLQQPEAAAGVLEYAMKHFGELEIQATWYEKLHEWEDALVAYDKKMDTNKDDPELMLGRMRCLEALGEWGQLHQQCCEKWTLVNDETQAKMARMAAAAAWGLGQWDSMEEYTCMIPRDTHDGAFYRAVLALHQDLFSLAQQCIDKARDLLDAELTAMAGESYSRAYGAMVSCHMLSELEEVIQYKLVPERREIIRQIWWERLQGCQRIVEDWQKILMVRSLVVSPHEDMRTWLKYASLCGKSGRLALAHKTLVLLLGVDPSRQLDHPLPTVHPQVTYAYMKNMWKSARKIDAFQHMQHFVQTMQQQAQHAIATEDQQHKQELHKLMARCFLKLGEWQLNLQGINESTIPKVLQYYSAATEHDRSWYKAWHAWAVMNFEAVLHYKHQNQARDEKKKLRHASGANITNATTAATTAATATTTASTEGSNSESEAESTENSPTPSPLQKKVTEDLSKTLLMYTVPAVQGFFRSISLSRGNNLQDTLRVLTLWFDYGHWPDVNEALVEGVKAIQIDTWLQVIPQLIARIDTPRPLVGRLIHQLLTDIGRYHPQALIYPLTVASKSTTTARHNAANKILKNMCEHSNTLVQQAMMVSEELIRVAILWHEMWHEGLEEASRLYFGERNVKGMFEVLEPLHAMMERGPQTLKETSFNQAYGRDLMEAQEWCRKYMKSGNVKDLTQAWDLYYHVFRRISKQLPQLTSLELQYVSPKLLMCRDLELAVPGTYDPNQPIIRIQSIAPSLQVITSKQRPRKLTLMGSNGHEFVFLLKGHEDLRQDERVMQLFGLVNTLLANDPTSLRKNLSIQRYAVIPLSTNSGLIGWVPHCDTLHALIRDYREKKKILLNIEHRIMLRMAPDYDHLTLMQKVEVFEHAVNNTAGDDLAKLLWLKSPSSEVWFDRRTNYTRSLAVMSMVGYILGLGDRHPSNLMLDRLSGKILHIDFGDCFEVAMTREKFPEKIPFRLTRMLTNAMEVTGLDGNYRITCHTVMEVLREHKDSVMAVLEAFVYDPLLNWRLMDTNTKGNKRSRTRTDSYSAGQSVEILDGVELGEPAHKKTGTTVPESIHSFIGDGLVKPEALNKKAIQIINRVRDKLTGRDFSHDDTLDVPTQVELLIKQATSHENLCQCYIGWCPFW
Description: The activity of the mTOR kinase was evaluated by using a purified truncated protein of the amino acids 1-1359 (reference: PV4753 from Invitrogen). The assay of the activity of the enzyme was carried out with the kit LANCE® Ultra which is an enzymatic test based on the detection of a phosphorylated peptide produced during the reaction, by using the fluorescence technique TR-FRET. It took place in a 384-well plate and was able to be divided into two phases: an enzymatic reaction phase and a phase for detecting the phosphorylated peptide.
During the enzymatic reaction phase, the following components were mixed in 10 μL of a same well: 5 μL of each dilution in series of inhibitors taken up in DMSO and then diluted to 1/25 in the reaction buffer (50 mM HEPES pH 7.5, 0.1% Tween-20, 1 mM EGTA, 10 mM MnCl2, 3 mM MgCl2 and 2 mM of DTT), 2.5 μL of a solution containing mTOR at the optimum concentration (concentration defined according to the optimization step described in the operating procedure of the kit) diluted in the same reaction buffer, and finally 2.5 μL of a solution containing 40 μM of ATP and 200 μM non-phosphorylated peptide diluted in the reaction buffer. For each inhibitor concentration, the reaction was conducted in three copies (triplicate). The reaction was then incubated for 120 min at room temperature without any stirring in darkness.
During the phase for detecting the phosphorylated peptide, 5 μL of an EDTA solution (32 mM) diluted in the dilution buffer (ref.: CR97-100 from Perkin Elmer) were injected into each well. After 5 min of incubation with stirring, 5 μL of a phosphorylated anti-peptide antibody solution labeled with europium (8 nM) and diluted in the same dilution buffer was added into each well. After 60 min of incubation at room temperature with stirring (40 rpm) in darkness, the 384-well plates were read in a plate reader Victor V configured for HTRF (Perkin Elmer). […] The inhibition curve was then plotted according to the fluorescence intensity value at 665 nm versus the inhibitor concentration.
The amount of inhibitor required for causing a 50% variation in the intensity of the signal corresponds to the IC50 value of the inhibitor.

PI3Kγ = PI3Kγ (Homo sapiens, UniProt P48736); experiment: PI3Kγ kinase activity, Adapta TR-FRET ADP detection; format: biochemical; settings: p110γ catalytic subunit; read-out: Kinases IC50 PI3Kγ
Sequence of PI3Kγ (P48736 whole entry): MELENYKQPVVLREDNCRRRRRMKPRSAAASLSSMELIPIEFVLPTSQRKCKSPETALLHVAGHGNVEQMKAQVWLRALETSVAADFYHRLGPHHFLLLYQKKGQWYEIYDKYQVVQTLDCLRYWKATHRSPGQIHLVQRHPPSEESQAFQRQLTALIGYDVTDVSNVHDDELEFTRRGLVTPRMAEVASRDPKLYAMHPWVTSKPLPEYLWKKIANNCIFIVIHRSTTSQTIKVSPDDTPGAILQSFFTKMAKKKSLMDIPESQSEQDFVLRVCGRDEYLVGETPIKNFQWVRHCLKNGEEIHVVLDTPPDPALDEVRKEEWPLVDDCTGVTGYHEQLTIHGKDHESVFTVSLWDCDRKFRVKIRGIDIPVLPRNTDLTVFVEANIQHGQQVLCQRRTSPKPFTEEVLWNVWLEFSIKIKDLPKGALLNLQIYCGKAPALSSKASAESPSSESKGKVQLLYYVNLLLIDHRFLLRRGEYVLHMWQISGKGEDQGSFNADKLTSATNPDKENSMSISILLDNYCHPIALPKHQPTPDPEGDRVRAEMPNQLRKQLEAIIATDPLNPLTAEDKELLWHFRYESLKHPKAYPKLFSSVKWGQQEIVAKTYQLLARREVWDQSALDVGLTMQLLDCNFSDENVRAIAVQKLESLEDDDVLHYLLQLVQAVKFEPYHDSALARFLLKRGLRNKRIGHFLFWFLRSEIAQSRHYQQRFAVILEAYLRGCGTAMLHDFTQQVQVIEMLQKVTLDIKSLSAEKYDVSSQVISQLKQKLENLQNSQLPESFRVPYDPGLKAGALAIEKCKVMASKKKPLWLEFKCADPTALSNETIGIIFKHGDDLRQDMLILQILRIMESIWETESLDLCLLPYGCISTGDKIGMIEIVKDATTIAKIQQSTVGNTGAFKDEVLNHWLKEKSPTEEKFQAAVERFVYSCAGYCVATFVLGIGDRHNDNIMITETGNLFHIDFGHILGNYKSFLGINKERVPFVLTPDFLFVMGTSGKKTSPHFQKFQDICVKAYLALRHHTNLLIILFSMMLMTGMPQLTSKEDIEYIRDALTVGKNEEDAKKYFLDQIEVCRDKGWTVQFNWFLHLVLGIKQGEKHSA
Description: as §3, §4, §5, §6, §7, §8, §9

SMILES | IC50 (PC3) [µM] | IC50 (HacaT) [µM] | IC50 (HCT116) [µM] | IC50 (NCl) [µM] | IC50 (MDA) [µM] | IC50 (HUH7) [µM] | IC50 (Fibroblasts) [µM] | IC50 (PI3Kα) [µM] | IC50 (CaCo2) [µM] | melting point [°C] | IC50 (PI3Kδ) [µM] | IC50 (mTOR) [µM] | IC50 (PI3Kγ) [µM]
O=C(Nc1ccc(CO)cc1)Nc1ccc(-c2nc(N3CCOCC3)c3ncc(CN4CCOCC4)cc3n2)cc1 [Compound 78, 1-[4-(hydroxymethyl)phenyl]-3-{4-[4-(morpholin-4-yl)-7-(morpholin-4 ylmethyl)pyrido[3,2-d]pyrimidin-2-yl]phenyl}urea] | 2 | 2 | 1 | 3 | 3 | 2 | > 25 | 0.023 | 12 | > 260 |  |  | 
COc1ccc(-c2nc(N3CCOCC3)c3ncc(Cl)cc3n2)cc1 [Compound 9, 4-(7-chloro-2-(4-methoxyphenyl)pyrido[3,2-d]pyrimidin-4-yl)morpholine] | > 25 | > 25 | > 25 | > 25 | > 25 | > 25 | > 25 | 6.2 | > 25 | 176 | 0.363 | > 50 | 3.1
O=[N+]([O-])c1ccc(-c2nc(N3CCOCC3)c3ncc(Cl)cc3n2)cc1 [Compound 10, 4-(7-chloro-2-(4-nitrophenyl)pyrido[3,2-d]pyrimidin-4-yl)morpholine] |  |  |  |  |  |  |  |  |  | 200 |  |  | 
C=Cc1cnc2c(N3CCOCC3)nc(-c3ccc(O)cc3)nc2c1 [Compound 16, 4-(4-Morpholino-7-vinylpyrido[3,2-d]pyrimidin-2-yl)phenol] | > 25 | > 25 | > 25 | > 25 | > 25 | > 25 | > 25 | 1.6 | > 25 | > 260 | 2.1 | 0.37 | 1.7
Oc1ccccc1-c1nc(N2CCOCC2)c2ncc(Cl)cc2n1 [Compound 5, 2-(7-Chloro-4-morpholinopyrido[3,2-d]pyrimidin-2-yl)phenol] | > 25 |  | > 25 | > 25 | > 25 | > 25 | > 25 |  | > 25 | 212 |  |  | 
O=C(Nc1ccc(-c2nc(N3CCOCC3)c3ncc(CN4CCOCC4)cc3n2)cc1)Nc1cccc(CO)c1 [Compound 80, 1-[3-(hydroxymethyl)phenyl]-3-{4-[4-(morpholin-4-yl)-7-(morpholin-4-ylmethyl)pyrido[3,2-d]pyrimidin-2-yl]phenyl}urea] |  |  |  |  |  |  |  |  |  | 200 to 202 |  |  | 
Oc1ccc(-c2nc(N3CCOCC3)c3ncc(Cl)cc3n2)cc1 [Compound 7, 4-(7-Chloro-4-morpholinopyrido[3,2-d]pyrimidin-2-yl)phenol] | 25 |  | > 25 | > 25 | 25 | 25 | > 25 | 15.2 | 25 | 253 to 254 | 1.5 | 0.184 | > 50
OCc1cccc(-c2nc(N3CCOCC3)c3ncc(Cl)cc3n2)c1 [Compound 8, (3-(7-Chloro-4-morpholinopyrido[3,2-d]pyrimidin-2-yl)phenyl)methanol] | 20 |  | 5 | > 25 | 20 | 25 | 2 | 0.032 | 3 | 157 | 0.016 | > 50 | 0.431

From US10202372B2, “Trisubstituted pyrido[2,3-D]pyrimidines, methods for preparing same and therapeutic uses thereof” (CENTRE NATIONAL DE LA RECHERCHE SCIENTIFIQUE (C.N.R.S), priority 2012, dated 2019)
